Experimental data as given in patent publication US20140039044A1, “Hydroxylated Polymethoxyflavone Compositions” (WLLGEN, INC., priority 2006, published 2014).

Legend:
[1] = tested on: LPS-induced NFκB promoter activities in RAW264.7 macrophages; test: NFκB-dependent luciferase reporter assay; assay type: cell-based, mouse; conditions: FIG. 5
Method: RAW264.7 cells were seeded in […]. When the cells were confluent, the medium was replaced with serum-free Opti-MEM (Gibco-BRL). Then the cells were transfected with the p-NFκB-Luc plasmid reporter gene using LIPOFECTAMINE™ reagent (Invitrogen). After 6 h incubation, the medium was replaced with complete medium. After 24 h, the cells were trypsinized and equal numbers of cells were plated in 24 well tissue culture plates for 6 h. Cells were then treated with LPS (100 ng/ml) alone or with PMFs (10 or 30 μM) for 12 h. Each well was wash twice with cold PBS and harvested in 100 μl serum-free DMEM, and the luciferase activity was assayed by LUCILITE luciferase reporter gene assay kit (PerkinElamer). Luminescence was measured in a Luminescence counter (Molecular Devices, LMaxII) in single photon counting mode for 2 sec/well, following 5 min adaptation in the dark.
To confirm whether selected PMFs inhibited NFκB binding activity in LPS-induced macrophages, assessment of luciferase expression in cells transiently transfected with NFκB-dependent luciferase reporter plasmid was assessed according to the procedures described above in Section 8.4.

COX-2 = test: Western blot of LPS-induced COX-2 protein expression; assay type: cell-based, mouse; conditions: LPS-activated macrophages, 30 μM, 24 h, FIG. 4
Method: (§1) Proteins were isolated from cells after treatment with test compounds for 24 h. Total protein was extracted by adding 200 μL of gold lysis buffer (50 mM Tris-HCl, pH 7.4; 1 mM NaF; 150 mM NaCl; 1 mM EGTA; 1 mM phenylmethanesulfonyl fluoride; 1% NP-40; and 10 μg/mL leupeptin) to the cell pellets, which were kept on ice for 30 minutes, followed by centrifugation at 10,000×g for 30 min at 4° C. The protein concentrations of the cytosolic fraction (supernatant) were measured by BIO-RAD Protein Assay (Bio-Rad Laboratories, Munich, Germany). Samples containing 50 μg of protein were electrophoretically separated by SDS-PAGE and transferred to PVDF membrane (Millipore Corp., Bedford, Mass.) using standard procedures. See Burnette (1981) Anal. Biochem. 112:195-203. […]
(§2) Western blot analysis of inhibition of LPS-induced iNOS and COX-2 protein expression by PMFs was analyzed, following procedures described above. […] Equal amounts of total proteins (50 μg) were subjected to 10% SDS-PAGE, and expression of iNOS, COX-2 and β-actin protein was detected by Western blot using specific antibodies.

[2] = tested on: MCF-7 breast cancer cells; test: Cell death by propidium iodide uptake; assay type: cell-based, human; conditions: MCF-7 cells; for Cell death (propidium iodide), in words: evident at day 6, FIG. 9
Method: MCF-7 cells were maintained and assayed as described in Section 8.4 above. Apoptosis was evaluated by the plasma membrane and nuclear changes as previously described in Sergeev (2004) J. Steroid Biochem. Mol. Biol. 89-90:419-425. Briefly, An Annexin V assay (ALEXA FLUOR 488 Annexin V Assay Kit; Molecular Probes) was used for detection of the apoptotic plasma membrane (loss of membrane asymmetry due to phosphatidylserine translocation). Fluorescence (485 nm excitation, 530 nm emission) of the Annexin V-abeled cells grown in 96-well plates was measured in the FLx800 plate reader with KC software (BioTek) and expressed in fluorescence units per 1×10^3 cells. Propidium iodide uptake was used to evaluate non-apoptotic and apoptotic cell death (the dye permeates plasma membrane and stain nucleic acids of both necrotic and the late apoptotic cells). Fluorescence (530 nm excitation, 620 nm emission) of the propidium iodide-labeled cells was also measured in the FLx800 reader. Additionally, HOECHST 33342 and ALEXA FLUOR 488 Annexin V were employed to visualize apoptotic nuclei (nuclear fragmentation) and the apoptotic plasma membrane, respectively. Fluorescence microscopy of HOECHST 33342- and Annexin V-labeled cells was performed as described below for the cellular Ca^2+ and immunofluorescence imaging.

[Ca^2+]i in MCF-7 cells = Intracellular calcium measurement (fluo-3); assay type: cell-based, human; conditions: for Intracellular Ca^2+ levels, in words: 50-100 μM, day 6; for Basal level of [Ca^2+]i, in words: fluo-3/AM, day 3 and 6, dose-dependent
Method: Concentration of intracellular free Ca^2+ ([Ca^2+]i) was measured with Ca^2+ indicators fura-2 and fluo-3, as described in detail previously, for example, in Sergeev (2004) J. Steroid Biochem. Mol. Biol. 89-90:419-425. For [Ca^2+]i measurements with fluo-3, cells grown in the 96-well, black-wall plates were loaded with 2 μM of fluo-3/AM (Molecular Probes) in Dulbecco's PBS (D-PBS) supplemented with 0.1% DMSO for 40 min at 37° C. Fluorescence (485 nm excitation, 530 nm emission) was measured in the FLx800 plate reader, as described above. For [Ca^2+]i measurements with fura-2, cells grown on coverslips were loaded with 1 μM of fura-2/AM (Molecular Probes) in D-PBS supplemented with 0.1% DMSO and 0.01% Pluronic F-127 for 40 min at 37° C. The dynamics of intracellular Ca^2+ was assessed with cells in the microincubation chamber (37.0±0.2° C.) on a NIKON ECLIPSE TE-300 inverted microscope equipped for epifluorescence, ratiometric, digital imaging. The images were captured using SUPERFLUOR 40× 1.3 NA oil-immersion objective (Nikon) and COOLSNAPFX digital CCD camera (Photometrics), ratioed (340/380 nm excitation, 510 nm emission) on a pixel-by-pixel basis, and stored for analysis. Image analysis was performed using METAFLUOR 6.3 software (Molecular Devices/Universal Imaging).

COX-2 mRNA = test: LPS-induced COX-2 mRNA expression by real-time PCR; assay type: cell-based, mouse; conditions: RAW264.7 macrophages, 100 ng/mL LPS, 20 μM, relative to G3PDH, FIG. 6
Method: Bacterial lipopolysaccharide (LPS)-induced COX-2 expression was monitored in RAW264.7 macrophages, as previously described. Briefly, COX-2 expression was determined in untreated cells and cells treated with 100 ng/mL LPS either in the absence or the presence of 20 μM 5-hydroxy-3,6,7,8,3′,4′-hexamethoxyflavone. COX-2 mRNA levels were determined by real-time PCR where the values obtained were relative to expression of glyceraldehyde-3-phosphate dehydrogenase (G3PDH).

iNOS = test: Western blot of LPS-induced iNOS protein expression; assay type: cell-based, mouse; conditions: LPS-activated macrophages, 30 μM, 24 h, FIG. 4
Method: as §1, §2

Compound | Rank of inhibitory potency on LPS-induced NFκB transcriptional activity ([1]; RAW264.7, 30 μM) | Inhibition of LPS-induced NFκB transcriptional activity, in words ([1]; RAW264.7, LPS 100 ng/ml, PMF 10 or 30 μM, 12 h) | Inhibition of COX-2 expression (Western blot), in words (COX-2) | Induction of cell death (ECmin, apparent minimal effective concentration) [2] | Cell death (propidium iodide), in words [2] | Increase in [Ca^2+]i (ECmin, apparent minimal effective concentration) ([Ca^2+]i in MCF-7 cells) | Intracellular Ca^2+ levels, in words ([Ca^2+]i in MCF-7 cells) | Basal level of [Ca^2+]i, in words ([Ca^2+]i in MCF-7 cells) | Inhibition of LPS-induced COX-2 mRNA expression, in words (COX-2 mRNA) | Inhibition of iNOS expression (Western blot), in words (iNOS)
COc1c(OC)c(OC)c2c(=O)cc(-c3ccc(O)c(O)c3)oc2c1OC [H, 3′,4′-dihydroxy-5,6,7,8-tetramethoxyflavone] | greatest inhibitory potency of PMFs tested | inhibited LPS-induced NFκB transcriptional activity in a concentration-dependent manner | most potent inhibitor of COX-2 expression |  |  |  |  |  |  | 
COc1ccc(-c2cc(=O)c3c(OC)c(OC)c(OC)cc3o2)cc1OC [Compound 7, 5,6,7,3′,4′-pentamethoxyflavone, reference compound] |  |  |  | >50 µM | not effective in inducing non-apoptotic cell death | >50 µM | only a trend in increasing intracellular Ca^2+ levels |  |  | 
COc1ccc(-c2cc(=O)c3c(OC)c(OC)c(OC)cc3o2)cc1O [Compound 5, 3′-hydroxy-5,6,7,4′-tetramethoxyflavone] |  |  |  | 6.25 µM | induced death of MCF-7 breast cancer cells | 3.125 µM |  | induced an increase in the basal level of [Ca^2+]i |  | 
COc1ccc(-c2oc3c(OC)c(OC)c(OC)c(O)c3c(=O)c2OC)cc1OC [Compound C, 5-hydroxy-3,6,7,8,3′,4′-hexamethoxyflavone] |  |  |  | 3.125 µM | induced death of MCF-7 breast cancer cells | 1.56 µM |  | induced an increase in the basal level of [Ca^2+]i | inhibits LPS-induced COX-2 mRNA expression | 
COc1ccc(-c2oc3c(OC)c(OC)c(OC)c(OC)c3c(=O)c2OC)cc1OC [D, 3,5,6,7,8,3,4-heptamethoxyflavone, reference compound] |  |  |  | >50 µM | not effective in inducing non-apoptotic cell death | >50 µM | only a trend in increasing intracellular Ca^2+ levels |  |  | 
COc1ccc(-c2cc(=O)c3c(O)c(OC)c(OC)c(OC)c3o2)cc1O [Compound K, 5,3′-dihydroxy-6,7,8,4′-tetramethoxyflavone] |  |  |  |  |  |  |  |  |  | most potent inhibitor of iNOS expression
